Assays:
Gal-3 [1] = conditions: for Gal-3; cited from earlier work
Gal-1 = conditions: for Gal-1; cited from earlier work
Gal-3 [2] = biological target: Gal-3 (Homo sapiens, UniProt P17931); assay: competitive inhibition of Gal-3 binding to immobilized asialofetuin; conditions: negative control
Gal-3 (Homo sapiens, UniProt P17931), sequence (P17931 whole entry): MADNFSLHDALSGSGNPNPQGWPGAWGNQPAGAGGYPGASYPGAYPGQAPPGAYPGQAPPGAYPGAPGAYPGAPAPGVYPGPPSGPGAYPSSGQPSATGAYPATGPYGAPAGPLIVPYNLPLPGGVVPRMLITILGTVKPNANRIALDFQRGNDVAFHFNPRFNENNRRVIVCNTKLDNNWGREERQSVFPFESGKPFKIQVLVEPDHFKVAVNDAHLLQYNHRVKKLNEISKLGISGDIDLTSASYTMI

Compound: OC[C@H]1O[C@@H](S[C@@H]2O[C@H](CO)[C@H](O)[C@H](O)[C@H]2O)[C@H](O)[C@@H](O)[C@H]1O [TDG, thiodigalactoside]
- Kd (Gal-3 [1]): 49 µM
- Kd (Gal-1): 24 µM

Compound: CO[C@@H]1O[C@H](CO)[C@@H](O[C@@H]2O[C@H](CO)[C@H](O)[C@H](O)[C@H]2O)[C@H](O)[C@H]1NC(C)=O [methyl β-LacNAc]
- Kd (Gal-3 [1]): 67 µM

Compound: CO[C@@H]1O[C@H](CO)[C@@H](O[C@@H]2O[C@H](CO)[C@H](O)[C@H](O)[C@H]2O)[C@H](O)[C@H]1O [methyl β-lactoside]
- Kd (Gal-3 [1]): 220 µM
- Kd (Gal-1): 190 µM

Compound: bovine serum albumin [Nonmodified BSA]
- interference with Gal-3 binding to ASF (Gal-3 [2]): not interfering with Gal-3 binding to ASF

Reference: article PMC5909177 (Bioconjugate Chemistry, 2018)
